# Laboratory results from patent US6903083B2, “Stabilized hydroxyvitamin D” (Bone Care International, Inc., priority 2000, dated 2005).
# How the values were obtained:
# Format in all cases: physicochemical
# [1] = Stability testing of 1α,24(S)-dihydroxyvitamin D2 containing >0.5% residual solvents, 60° C. for 48 hours, HPLC (Example 9); details: capped vial
# Procedure: Approximately 1 mg of 1α,24(S)-dihydroxyvitamin D2 containing >0.5% residual solvents (non-SHVD) was placed in a capped vial and heated at 60° C. for 48 hours. The contents of the vial were dissolved in ethanol to produce a 1 mg/mL solution. The solution (10 μL) was analyzed by the following HPLC conditions: a YMC Pack Pro C18 column (4.6×150 mm, 5 μm) with a mobile phase of acetonitrile: water (50:50) at a flow rate of 1.0 mL/min.
# [2] = Storage stability testing of SHVD2, long-term storage at −70° C., HPLC and UV
# Procedure: (§1) The stability of samples from four lots of SHVD2 was examined at 6-month intervals during long-term storage at −70° C. All lots were stored in the container-closure system selected as packaging for the drug substance. Stability was assessed by examining samples for changes in (1) weight percent 1α-OH-D2 content, (2) percent related substances content, and (3) impurity profile, using HPLC. In addition, all lots were examined for changes in UV spectrum by UV spectrophotometry.
# [3] = Stability testing SHVD2 v. commercially available 1α-OH-D2, oven at about 60° C., HPLC (Example 7); details: solid in test tube, present-tense example
# Procedure: Approximately 1 mg of SHVD2 or commercial 1α-hydroxyvitamin D2 is placed in each of 2 (12×75 mm) test tubes. One test tube from each of the two preparations is placed in an oven at about 60° C. For analysis, the contents in each test tube are dissolved in ethanol to produce a 1 mg/mL solution. Each solution (10 μL) is analyzed by the following HPLC conditions: a YMC Pack C8 column (4.6×250 mm, 5 μm) with a mobile phase of acetonitrile: methanol: water (60:20:20) at a flow rate of 1.0 mL/min.
# [4] = Stability testing SHVD2 v. non-SHVD2, oven at about 60° C., HPLC (Example 6); details: 0 to 48 hours, solid in test tube, present-tense example
# Procedure: Approximately 1 mg of SHVD2 or non-stabilized 1α-hydroxyvitamin D2 (non-SHVD2) is placed in each of 9 (12×75 mm) test tubes. The test tubes are placed in an oven at about 60° C. One test tube of each of the two vitamin D2 preparations is removed at 0, 3, 6, 9, 12, 18, 24, 36 and 48 hours of incubation. The contents in each test tube are dissolved in ethanol to produce a 1 mg/mL solution. Each solution (10 μL) is analyzed by the following HPCL conditions: a YMC Pack C8 column (4.6×250 mm, 5 μm) with a mobile phase of acetonitrile: methanol: water (60:20:20) at a flow rate of 1.0 mL/min.
# [5] = Stability testing SHVD2 v. non-SHVD2 (ethanol vapour exposed), 60° C. for 48 hours, HPLC (Example 8); details: non-SHVD2 made by exposure to ethanol vapors
# Procedure: Approximately 1 mg of stabilized 1α-hydroxyvitamin D2 (doxercalciferol) (SHVD2) was placed in each of two test tubes (12×75 mm). One sample was placed in a dessicator containing an atmosphere of ethanol vapors to increase the residual solvent content of the material to form non-stabilized doxercalciferol (non-SHVD2). The material in the dessicator was heated at 60° C. for 48 hours. The other sample was not subjected to the ethanol atmosphere, thereby retaining its stabilized form, but was heated at 60° C. for 48 hours. The contents in each test tube were dissolved in ethanol to produce a 1 mg/mL solution. Each solution (10 μL) was analyzed by the following HPLC conditions: a YMC Pack C8 column (4.6×250 mm, 5 μm) with a mobile phase of acetonitrile: methanol: water (60:20:20) at a flow rate of 1.0 mL/min.
# [6] = Storage stability testing of stabilized 24-hydroxyvitamin D2, long-term storage at −70° C., HPLC and UV (Example 11); details: present-tense example
# Procedure: as §1, with “stabilized 24-Hydroxyvitamin D2 is” for “SHVD2 was”, “are” for “were”, “is” for “was”, “24-OH-D2” for “1α-OH-D2”
smiles,measurement,setting,value
"C=C1/C(=C\C=C2/CCC[C@]3(C)[C@@H]([C@H](C)/C=C/[C@@](C)(O)C(C)C)CC[C@@H]23)C[C@@H](O)C[C@@H]1O [1α,24(S)-dihydroxyvitamin D2]",appearance of a new compound by HPLC after heating,[1],"a compound with a relative retention time of approximately 0.85 compared with standard 1α,24(S)-dihydroxyvitamin D2 was observed"
"C=C1/C(=C\C=C2/CCC[C@]3(C)[C@@H]([C@H](C)/C=C/[C@H](C)C(C)C)CC[C@@H]23)C[C@@H](O)C[C@@H]1O [SHVD2, 1α-hydroxyvitamin D2]","impurity profile chromatography, new peaks relative to baseline",[2]; 6 or 12 months,no new peaks
same,weight % 1α-OH-D2 content,"[2]; all four lots, all time points (baseline, 6, 12 months), HPLC",> 98.0%
same,percent related substances,"[2]; baseline to 12 months, HPLC",< 2.0%
same,differences in mean weight % 1α-OH-D2 content between baseline and 6 or 12 months,[2]; four lots,no significant differences
"C=C1/C(=C\C=C2/CCC[C@]3(C)[C@@H]([C@H](C)/C=C/[C@H](C)C(C)C)CC[C@@H]23)C[C@@H](O)C[C@@H]1O [commercial 1α-hydroxyvitamin D2, 1α-hydroxyvitamin D2]",rate of appearance of the peak with relative retention time of approximately 0.9 compared with the 1α-hydroxyvitamin D2 peak,[3],greater with the commercial 1α-hydroxyvitamin D2 than with SHVD2
"C=C1/C(=C\C=C2/CCC[C@]3(C)[C@@H]([C@H](C)/C=C/[C@H](C)C(C)C)CC[C@@H]23)C[C@@H](O)C[C@@H]1O [non-SHVD2, 1α-hydroxyvitamin D2]",rate of appearance of the peak with relative retention time of approximately 0.9 compared with the 1α-hydroxyvitamin D2 peak,[4],greater with the non-SHVD2 than with SHVD2
same,rate of appearance of the peak with relative retention time of approximately 0.9 compared with the doxercalciferol peak,[5],greater with the non-SHVD2 material than with SHVD2
"C=C1CC[C@H](O)C/C1=C/C=C1\CCC[C@]2(C)[C@@H]([C@H](C)/C=C/C(C)(O)C(C)C)CC[C@@H]12 (stereo partly drawn) [stabilized 24-Hydroxyvitamin D2, 24-hydroxyvitamin D2]","impurity profile chromatography, new peaks relative to baseline",[6]; 6 or 12 months,no new peaks
same,weight % 24-OH-D2 content,"[6]; all four lots, all time points",> 98.0%
same,percent related substances,[6]; baseline to 12 months,< 2.0%
same,differences in mean weight % 24-OH-D2 content between baseline and 6 or 12 months,[6],No significant differences
